Data published in PubChem BioAssay (NCI).
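A five-concentration, 48-hour dose response in 96-well plates underlies each endpoint, interpolated linearly between surrounding concentrations. Abbreviation: GI50, concentration required for 50% inhibition of growth. At the TGI there is no net growth.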

How the values were obtained:
Test in all cases: NCI tumour cell line growth inhibition, 48 h
[1] = tested on: MOLT-4 leukemia
[2] = tested on: MDA-MB-231 breast
[3] = tested on: HCC-2998 colon
[4] = tested on: SK-OV-3 ovarian
[5] = tested on: DU-145 prostate
[6] = tested on: U251 CNS
[7] = tested on: SF-268 CNS
[8] = tested on: OVCAR-3 ovarian
[9] = tested on: OVCAR-5 ovarian
[10] = tested on: COLO 205 colon

Row | Compound | GI50 [1] [µM] | TGI [1] [µM] | GI50 [2] [µM] | TGI [2] [µM] | GI50 [3] [µM] | TGI [3] [µM] | GI50 [4] [µM] | TGI [4] [µM] | GI50 [5] [µM] | TGI [5] [µM] | GI50 [6] [µM] | TGI [6] [µM] | GI50 [7] [µM] | TGI [7] [µM] | GI50 [8] [µM] | TGI [8] [µM] | GI50 [9] [µM] | TGI [9] [µM] | TGI [10] [µM] | GI50 [10] [µM]
1 | O=C1C=CC2C3C(=O)N(c4ccccc4)C(=O)C3C1N2Cc1ccccc1 (centres undefined) | 1.72 | 5.42 | 5.44 | 20.1 | 7.95 | 18.7 | 13.2 | 26.1 | 9.65 | 22.4 | 2.29 | 11.8 | 3.34 | 8.85 | 3.45 | 11.3 | 6.74 | 19.3 | 5.37 | 
2 | Oc1c(C(c2ccc(F)cc2)N2CCCCC2)ccc2cncnc12 (centres undefined) | 1.38 | > 100 | 1.5 | > 100 | 2.09 | > 100 | 0.571 | 38.8 | 0.784 | > 100 | 0.325 | > 100 | 0.484 | > 100 | 0.783 | > 100 | 1.28 | > 100 | > 100 | 3.3
3 | Cc1ccc2ccccc2c1CSc1nc(N)nc2c1ncn2CC(C)C |  | 29.7 |  | > 100 |  | > 71.6 |  | > 100 |  | > 100 |  | > 100 |  | > 100 |  | > 100 |  | > 100 | 20.2 | 
4 | O=C(Nc1ccc(Br)c2ccccc12)c1ccc2ccccc2c1O |  | > 100 |  | 16.8 |  | 20.9 |  | 18.6 |  | 85.4 |  | 35.2 |  | 31.8 |  | 35.7 |  | 12.7 | 5.49 | 
5 | CCCCCCCCN(CCCCCCCC)CC(O)c1cc(-c2ccccc2)nc2ccc(OC)cc12 (centres undefined) | 23.1 | > 100 | 11.1 | > 100 | > 100 | > 100 | > 100 | > 100 | 37 | > 100 | 27.8 | 96.2 | 28.7 | > 100 | 21.2 | 61.2 | > 100 | > 100 | > 100 | 22.1
6 | CC(=O)C1=C(C)N(Cc2ccccc2)C2(O)C=CC(=O)C3=C(O)c4ccccc4C(=O)C312 (centres undefined) | 3.34 | > 100 | 2.1 | 5.97 | 13 | 36.4 | 18.3 | 42.4 | 4.57 | 19.7 | 3.38 | 10.2 | 10.4 | 29.1 | 1.42 | 3.14 | 6.28 | 25 | 5.04 | 2.38
7 | Cc1nnc(N/N=C/c2ccc([N+](=O)[O-])o2)[nH]c1=O | 0.833 | > 100 | 1.26 | > 24.5 | 1.14 | > 100 | 3.77 | > 93.5 | 2.1 | > 100 | 0.289 | > 100 | 0.521 | > 57.9 | 0.429 | 3.18 | 2.98 | > 100 | > 100 | 2.53
